Experimental data published in PMC6148290, “Endogenous metabolites of vitamin E limit inflammation by targeting 5-lipoxygenase” (Nature Communications, 2018).

Key:
12-LO = biological target: T1, 12-LO (Homo sapiens, UniProt P18054); experiment: 12-LO product formation in A23187/AA-activated PMNL; type: cell-based; settings: at 3 µM; mean ± s.e.m., n = 3; n.i. no inhibition
T1 construct: 12-HETE (12-LO product from platelets in PMNL preparations); endogenous in cells; host or cells: platelets contaminating human PMNL preparations
T1 sequence (P18054 1-663): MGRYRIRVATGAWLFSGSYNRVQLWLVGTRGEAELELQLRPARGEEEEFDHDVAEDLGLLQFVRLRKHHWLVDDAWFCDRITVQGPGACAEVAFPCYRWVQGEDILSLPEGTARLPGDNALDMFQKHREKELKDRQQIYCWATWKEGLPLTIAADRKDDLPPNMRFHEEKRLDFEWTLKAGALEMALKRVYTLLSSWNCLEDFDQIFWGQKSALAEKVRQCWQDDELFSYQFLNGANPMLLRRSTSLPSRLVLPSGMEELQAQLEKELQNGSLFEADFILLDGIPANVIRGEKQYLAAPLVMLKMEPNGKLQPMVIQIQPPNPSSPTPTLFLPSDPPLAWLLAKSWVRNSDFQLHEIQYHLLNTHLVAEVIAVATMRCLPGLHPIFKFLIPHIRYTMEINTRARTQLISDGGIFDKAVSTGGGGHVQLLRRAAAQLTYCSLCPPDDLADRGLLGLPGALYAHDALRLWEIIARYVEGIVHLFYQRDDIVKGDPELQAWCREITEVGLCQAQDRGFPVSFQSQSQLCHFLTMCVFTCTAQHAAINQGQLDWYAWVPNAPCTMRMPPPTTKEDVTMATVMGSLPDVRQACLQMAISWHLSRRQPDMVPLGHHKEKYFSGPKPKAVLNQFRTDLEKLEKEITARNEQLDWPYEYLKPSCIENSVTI
Experimental: (§1) Cells were washed and medium was exchanged. Freshly isolated PMNL (1 × 10^7) and stably transfected HEK-293 (1 × 10^6) cells were suspended in PBS pH 7.4 containing 1 mg/ml glucose and 1 mM CaCl2. […] A23187- and A23187/AA-treated PMNL and A23187/AA-treated HEK-293 (5-LO_wt), HEK-293 (5-LO_3W) and HEK-293 (5-LO_Arg101Asp) cells produced 135 ± 21, 636 ± 112, 300 ± 59, 133 ± 29, 55 ± 9 ng 5-LO products, respectively. PMNL synthesized 29 ± 6 ng 12-HETE and 97 ± 23 ng 15-HETE when challenged with A23187/AA. 5-LO products from monocytes were analyzed by UPLC-MS/MS.

15-LO = 15-LO product formation in A23187/AA-activated PMNL; type: cell-based, human; settings: at 3 µM; mean ± s.e.m., n = 3; n.i. no inhibition
Experimental: as §1

[1] = test system: peripheral blood mononuclear cells; experiment: Cell viability of PBMC (MTT assay); type: cell-based, human; settings: 24 h
Experimental: The formazan product was solubilized with SDS (10% in 20 mM HCl), and absorbance was measured at 570 nm using a Multiskan Spectrum microplate reader (Thermo Fisher Scientific).

5-LO [2] = biological target: T2, 5-LO (Homo sapiens, UniProt P09917); experiment: Activity of purified human recombinant 5-LO (cell-free); type: biochemical; parameters: made in house; host or cells: E. coli Bl21 (DE3)
T2 sequence (P09917 1-674): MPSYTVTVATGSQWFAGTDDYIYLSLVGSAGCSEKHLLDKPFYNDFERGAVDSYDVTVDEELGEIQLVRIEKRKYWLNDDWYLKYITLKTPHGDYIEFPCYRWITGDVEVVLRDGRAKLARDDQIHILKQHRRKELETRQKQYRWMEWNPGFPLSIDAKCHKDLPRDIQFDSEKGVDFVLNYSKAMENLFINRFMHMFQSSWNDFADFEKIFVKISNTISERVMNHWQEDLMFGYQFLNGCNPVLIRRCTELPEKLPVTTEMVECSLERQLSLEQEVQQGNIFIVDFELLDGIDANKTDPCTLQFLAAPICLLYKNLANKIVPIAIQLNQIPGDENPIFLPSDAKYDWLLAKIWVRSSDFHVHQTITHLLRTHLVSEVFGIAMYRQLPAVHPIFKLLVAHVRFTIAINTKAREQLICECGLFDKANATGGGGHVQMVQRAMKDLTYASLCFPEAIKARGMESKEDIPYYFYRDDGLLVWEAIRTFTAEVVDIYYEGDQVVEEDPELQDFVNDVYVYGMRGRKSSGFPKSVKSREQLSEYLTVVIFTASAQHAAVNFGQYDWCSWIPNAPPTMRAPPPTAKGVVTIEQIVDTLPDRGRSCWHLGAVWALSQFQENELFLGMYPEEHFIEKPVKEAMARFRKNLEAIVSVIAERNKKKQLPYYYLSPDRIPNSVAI
Experimental: E. coli Bl21 (DE3) cells were transformed with pT3–5LO plasmid to express human recombinant 5-LO, which was purified by affinity chromatography on an ATP-agarose column. In brief, E. coli was lysed in 50 mM triethanolamine/HCl pH 8.0 plus EDTA (5 mM), soybean trypsin inhibitor (60 µg/ml), phenylmethanesulphonyl fluoride (1 mM), dithiothreitol (1 mM), and lysozyme (1 mg/ml). After sonication (3 × 15 s), the homogenate was centrifuged at 10,000 × g for 15 min and the supernatant again at 40,000 × g for 70 min at 4 °C. The supernatant was applied to an ATP-agarose column (Sigma-Aldrich), and the column was washed with (i) PBS pH 7.4, 1 mM EDTA, (ii) 50 mM phosphate buffer pH 7.4, 0.5 M NaCl, 1 mM EDTA, and (iii) 50 mM phosphate buffer pH 7.4, 1 mM EDTA. 5-LO was eluted with 50 mM phosphate buffer pH 7.4, 1 mM EDTA, 20 mM ATP.
Purified 5-LO (0.5 µg) in PBS pH 7.4 containing EDTA (1 mM) and ATP (1 mM) was pre-incubated with LCMs for 10 min at 4 °C, pre-warmed for 30 s at 37 °C and 5-LO product formation was started by addition of AA (Sigma-Aldrich; 20 µM if not indicated otherwise) plus CaCl2 (2 mM). […] AA was added after incubation for 5 min on ice.

5-LO [3] = biological target: T2, 5-LO; experiment: 5-LO product formation in activated PMNL; type: cell-based; parameters: Freshly isolated PMNL (1 × 10^7); endogenous in cells; host or cells: human PMNL freshly isolated from leukocyte concentrates; settings: cell-based; mean ± s.e.m., n = 3; read-out: IC50, activated PMNL (5-LO)
Text: Human PMNL, monocytes, PBMC, and platelets were freshly isolated from leukocyte concentrates. The protocols for experiments with human blood and blood cells were approved by the ethical commission of the Friedrich-Schiller-University Jena. […] PMNL were recovered from the pellet after hypotonic lysis of erythrocytes. Platelets were obtained from the supernatant and washed with PBS pH 5.9/0.9% NaCl (1:1). […]

[4] = at 1 and 10 µM (one entry for both), n.i. no inhibition
[5] = cell-free, mean ± s.e.m., n = 3, read-out: IC50, human recombinant 5-LO
[6] = human recombinant 5-LO, read-out: IC50 for 5-LO inhibition

Row | Structure (SMILES) | 12-LO product formation/PMNL, residual activity (12-LO) | 15-LO product formation/PMNL, residual activity (15-LO) | Cell viability/peripheral blood mononuclear cells, residual viability [1, 4] | IC50 (5-LO [2]; [5]) | IC50 (5-LO [3]) | also measured
1 | Cc1c(C)c2c(c(C)c1O)CCC(C)(CCC(=O)O)O2 (stereo not drawn) [6a, 2,5,7,8-tetramethyl-2-(2′-carboxyethyl)-6-hydroxychroman] | 87.2 ± 3.6 % of control | n.i. | – | – | – | –
2 | C/C(=C\CC/C(C)=C/CC[C@]1(C)CCc2c(C)c(O)cc(C)c2O1)CC/C=C(\C)C(=O)O [4f] | 70.0 ± 14.1 % of control | 186.1 ± 35.8 % of control | n.i. | – | – | –
3 | Cc1c(O)cc2c(c1C)OC(C)(CCC(=O)O)CC2 (stereo not drawn) [6c, 2,7,8-trimethyl-2-(2′-carboxyethyl)-6-hydroxychroman] | 89.9 ± 4.2 % of control | n.i. | – | – | – | –
4 | CC(C)=CCC/C(C)=C/CC/C(C)=C/CC[C@]1(C)CCc2c(C)c(O)c(C)c(C)c2O1 [1e] | 88.9 ± 4.9 % of control | n.i. | – | 330 ± 80 nM | 277000 ± 90000 nM | –
5 | C/C(=C\CC/C(C)=C/CC/C(C)=C/CC[C@]1(C)CCc2cc(O)cc(C)c2O1)CO [2h] | n.i. | n.i. | n.i. | 150 ± 50 nM | 1260 ± 330 nM | –
6 | Cc1cc(O)cc2c1OC(C)(CCC(=O)O)CC2 (stereo not drawn) [6d, 2,8-dimethyl-2-(2′-carboxyethyl)-6-hydroxychroman] | n.i. | n.i. | – | – | – | –
7 | C/C(=C/CC/C(C)=C/CC/C(C)=C/CC[C@]1(C)CCc2cc(O)c(C)c(C)c2O1)CO [3g] | – | 168.8 ± 1.2 % of control | – | 120 ± 30 nM | 140 ± 20 nM | Cell viability/peripheral blood mononuclear cells, residual viability ([1]; at 1 µM): n.i.; Cell viability/peripheral blood mononuclear cells, residual viability ([1]; at 10 µM): 43.7 ± 16.2 % of control
8 | C/C(=C\CC/C(C)=C/CC[C@]1(C)CCc2cc(O)cc(C)c2O1)CCC=C(CO)CO [compound 8] | – | – | – | – | – | IC50 (5-LO [2]): 150 ± 40 nM
9 | Cc1cc(O)cc2c1O[C@](C)(CCC[C@H](C)CCC[C@H](C)CCCC(C)C(=O)O)CC2 (stereo partly drawn) [4d] | 74.5 ± 5.9 % of control | 121.6 ± 10.9 % of control | n.i. | – | – | –
10 | Cc1c(C)c2c(c(C)c1O)CC[C@@](C)(CCCC(C)CCCC(C)CCCC(C)CO)O2 (stereo partly drawn) [2a] | 84.7 ± 4.7 % of control | 156.7 ± 26.2 % of control | n.i. | 350 ± 40 nM | 190 ± 50 nM | –
11 | C/C(=C\CC/C(C)=C/CC/C(C)=C/CC[C@]1(C)CCc2c(C)c(O)c(C)c(C)c2O1)CO [2e] | 62.7 ± 15.2 % of control | 88.0 ± 17.0 % of control | – | 110 ± 10 nM | 270 ± 100 nM | –
12 | C/C(=C\CC[C@]1(C)CCc2cc(O)cc(C)c2O1)CC/C=C(\C)CCCC(C)C(=O)O (stereo partly drawn) [4l] | – | – | – | – | – | IC50 (5-LO [2]): 170 ± 40 nM
13 | CC(C)=CCC/C(C)=C/CC/C(C)=C/CC[C@]1(C)CCc2cc(O)c(C)c(C)c2O1 [1g] | 70.8 ± 2.3 % of control | n.i. | – | 200 ± 60 nM | 132000 ± 33000 nM | –
14 | C/C(=C\CC/C(C)=C/CC[C@]1(C)CCc2cc(O)c(C)c(C)c2O1)CCC=C(CO)CO [compound 9] | – | – | – | – | – | IC50 (5-LO [2]): 110 nM
15 | Cc1cc(O)c(C)c2c1O[C@](C)(CCC[C@H](C)CCC[C@H](C)CCCC(C)C)CC2 [1b] | n.i. | n.i. | n.i. | 750 ± 150 nM | 57000 ± 2000 nM | –
16 | C/C(=C\CC/C(C)=C/CC[C@]1(C)CCc2cc(Oc3c(O)cc(C)c4c3CC[C@@](C)(CC/C=C(\C)CC/C=C(\C)CCC=C(CO)CO)O4)c(C)c(C)c2O1)CCC=C(CO)CO [compound 10, (δ,γ)-bi-O-amplexichromanol] | – | – | – | – | – | IC50 (5-LO [2]; purified human recombinant 5-LO, mean ± s.e.m., n = 3, read-out: IC50 (5-LO)): 400 ± 110 nM
17 | CC(C)=CCC/C(C)=C/CC/C(C)=C/CC[C@]1(C)CCc2c(C)c(O)cc(C)c2O1 [1f] | 65.4 ± 6.1 % of control | n.i. | – | 190 ± 30 nM | 95000 ± 5000 nM | –
18 | Cc1c(C)c2c(c(C)c1O)CCC(C)(CCCC(C)C(=O)O)O2 (stereo not drawn) [5a, 3,4-dihydro-6-hydroxy-α,2,5,7,8-pentamethyl-2H-1-benzopyran-2-pentanoic acid] | 56.7 ± 3.0 % of control | n.i. | – | – | – | IC50 (5-LO [2]; [6]): 750 nM
19 | C/C(=C\CC/C(C)=C/CC[C@]1(C)CCc2c(C)c(O)c(C)c(C)c2O1)CC/C=C(\C)C(=O)O [4e] | 72.6 ± 13.6 % of control | 181.5 ± 26.5 % of control | n.i. | – | – | –
20 | C/C(=C\CC/C(C)=C/CC/C(C)=C/CC[C@]1(C)CCc2c(C)c(O)cc(C)c2O1)CO [2f] | 57.8 ± 13.6 % of control | 78.9 ± 14.8 % of control | – | 90 ± 30 nM | 380 ± 90 nM | IC50 (5-LO [2]; [6]): < 100 nM
